For orientation: pIC50 means the IC50 on a negative log10 scale, so that one unit is a factor of ten.

The text below walks through data of ChEMBL document CHEMBL1153155, “Ring-fused pyrazole derivatives as potent inhibitors of lymphocyte-specific kinase (Lck): Structure, synthesis, and SAR” (Bioorg Med Chem Lett, 2010).

Each structure is given as a SMILES string. pIC50: −log10 of the molar value.

One experiment deals with Lymphocyte. The experiment is described as follows: Immunosuppressive activity in C57BL/6 mouse lymphocytes cocultured with mitomycin C-stimulated BALB/c mouse splenocyte assessed as [3H]thymidine incorporation after 72 hrs by mixed lymphocyte reaction. (Uptake of a labelled nucleoside into DNA is a usual measure of proliferation.)
The target of experiment [1] is Tyrosine-protein kinase Lck (Homo sapiens, UniProt P06239). In words: Inhibition of GST-tagged human LCK by scintillation counting.
The nature of experiment [2]: Inhibition of PKA.
Experiment [3] has as its target Tyrosine-protein kinase CSK (Homo sapiens, UniProt P41240). The experiment is described as follows: Inhibition of Csk.
The target of experiment [4] is Proto-oncogene tyrosine-protein kinase Src (Homo sapiens, UniProt P12931). The experiment is described as follows: Inhibition of SRC.
In experiment [5] the target is T1, Tyrosine-protein kinase ZAP-70 (Homo sapiens, UniProt P43403).
T1 sequence (P43403 whole entry): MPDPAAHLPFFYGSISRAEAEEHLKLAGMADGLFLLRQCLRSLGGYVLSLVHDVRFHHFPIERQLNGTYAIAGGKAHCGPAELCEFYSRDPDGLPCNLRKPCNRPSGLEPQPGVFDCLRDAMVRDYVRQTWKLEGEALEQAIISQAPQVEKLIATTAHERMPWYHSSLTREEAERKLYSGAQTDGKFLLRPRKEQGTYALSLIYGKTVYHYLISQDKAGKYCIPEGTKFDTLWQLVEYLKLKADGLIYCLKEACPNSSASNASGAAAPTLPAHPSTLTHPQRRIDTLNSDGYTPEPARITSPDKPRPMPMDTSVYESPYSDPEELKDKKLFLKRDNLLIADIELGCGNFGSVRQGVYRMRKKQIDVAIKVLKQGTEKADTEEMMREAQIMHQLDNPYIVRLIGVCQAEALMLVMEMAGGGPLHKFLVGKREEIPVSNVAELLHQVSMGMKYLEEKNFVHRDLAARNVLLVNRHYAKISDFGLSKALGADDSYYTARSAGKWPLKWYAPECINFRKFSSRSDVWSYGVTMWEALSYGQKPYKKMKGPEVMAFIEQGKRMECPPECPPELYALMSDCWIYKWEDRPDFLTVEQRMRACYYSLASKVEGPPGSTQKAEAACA
In words: Inhibition of Zap70.

Experiment [6] has as its target Dual specificity mitogen-activated protein kinase kinase 1 (Homo sapiens, UniProt Q02750). In words: Inhibition of MEK1.
The target of experiment [7] is Mitogen-activated protein kinase 1 (Homo sapiens, UniProt P28482). The experiment is described as follows: Inhibition of MAPK1.
For experiment [8], the target named is Cyclin-dependent kinase 1 (Homo sapiens, UniProt P06493). In words: Inhibition of CDK1.
The target of experiment [9] is T2, Calcium/calmodulin-dependent protein kinase type IV (Homo sapiens, UniProt Q16566).
T2 sequence (Q16566 whole entry): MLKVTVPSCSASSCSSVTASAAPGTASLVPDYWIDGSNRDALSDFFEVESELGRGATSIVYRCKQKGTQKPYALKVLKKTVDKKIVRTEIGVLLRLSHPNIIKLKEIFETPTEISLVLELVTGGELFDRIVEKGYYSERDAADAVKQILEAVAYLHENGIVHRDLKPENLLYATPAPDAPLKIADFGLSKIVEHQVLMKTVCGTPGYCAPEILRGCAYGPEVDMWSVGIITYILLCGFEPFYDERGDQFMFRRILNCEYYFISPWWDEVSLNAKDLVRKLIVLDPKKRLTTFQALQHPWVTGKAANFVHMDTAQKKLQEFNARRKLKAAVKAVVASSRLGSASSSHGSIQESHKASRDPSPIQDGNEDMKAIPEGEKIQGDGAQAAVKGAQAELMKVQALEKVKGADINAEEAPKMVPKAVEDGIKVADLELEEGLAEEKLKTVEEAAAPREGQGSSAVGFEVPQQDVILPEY
The experiment is described as follows: Inhibition of CamK4.

For experiment [10], the target named is RAC-alpha serine/threonine-protein kinase (Homo sapiens, UniProt P31749). The experiment is described as follows: Inhibition of PKBalpha.
Experiment [11] concerns the target Protein kinase C alpha type (Homo sapiens, UniProt P17252). In words: Inhibition of PKCalpha.

Sequence of Tyrosine-protein kinase Lck (P06239 whole entry): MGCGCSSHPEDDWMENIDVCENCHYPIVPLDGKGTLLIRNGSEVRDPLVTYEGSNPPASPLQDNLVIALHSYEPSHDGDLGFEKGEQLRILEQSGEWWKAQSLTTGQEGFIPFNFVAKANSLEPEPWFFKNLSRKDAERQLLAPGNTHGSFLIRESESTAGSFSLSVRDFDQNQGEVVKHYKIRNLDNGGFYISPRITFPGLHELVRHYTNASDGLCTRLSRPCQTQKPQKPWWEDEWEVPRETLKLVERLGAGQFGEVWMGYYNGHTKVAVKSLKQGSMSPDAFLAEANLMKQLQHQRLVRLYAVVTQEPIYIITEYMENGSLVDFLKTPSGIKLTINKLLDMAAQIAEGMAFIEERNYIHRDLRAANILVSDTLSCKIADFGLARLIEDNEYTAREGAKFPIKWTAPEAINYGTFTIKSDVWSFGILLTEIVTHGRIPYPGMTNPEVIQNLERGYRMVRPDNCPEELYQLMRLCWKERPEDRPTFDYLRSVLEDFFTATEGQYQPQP
Sequence of Cyclin-dependent kinase 1 (P06493 whole entry): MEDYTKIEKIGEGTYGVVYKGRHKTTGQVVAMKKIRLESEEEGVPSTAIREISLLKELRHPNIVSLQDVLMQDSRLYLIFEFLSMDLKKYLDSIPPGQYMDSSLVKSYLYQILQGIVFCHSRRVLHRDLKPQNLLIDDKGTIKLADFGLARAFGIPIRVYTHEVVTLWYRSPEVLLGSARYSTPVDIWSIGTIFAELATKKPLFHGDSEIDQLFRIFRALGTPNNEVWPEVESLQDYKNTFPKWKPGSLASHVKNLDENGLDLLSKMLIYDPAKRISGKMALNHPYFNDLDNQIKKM
Sequence of Proto-oncogene tyrosine-protein kinase Src (P12931 2-536 limits assumed): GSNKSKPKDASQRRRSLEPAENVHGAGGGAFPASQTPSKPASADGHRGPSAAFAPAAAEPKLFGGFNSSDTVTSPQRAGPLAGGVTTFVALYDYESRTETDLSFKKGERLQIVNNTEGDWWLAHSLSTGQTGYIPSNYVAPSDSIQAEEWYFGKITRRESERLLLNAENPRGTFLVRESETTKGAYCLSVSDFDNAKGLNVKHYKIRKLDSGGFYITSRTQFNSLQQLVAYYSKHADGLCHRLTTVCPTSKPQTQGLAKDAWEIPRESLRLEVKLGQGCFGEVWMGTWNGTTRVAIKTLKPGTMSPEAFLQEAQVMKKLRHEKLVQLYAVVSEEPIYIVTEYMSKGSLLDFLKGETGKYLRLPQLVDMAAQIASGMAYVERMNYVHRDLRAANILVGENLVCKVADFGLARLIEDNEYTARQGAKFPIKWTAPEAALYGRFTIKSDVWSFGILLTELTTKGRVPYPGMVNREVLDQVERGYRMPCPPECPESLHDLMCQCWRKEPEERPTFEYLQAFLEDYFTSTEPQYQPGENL
Sequence of RAC-alpha serine/threonine-protein kinase (P31749 whole entry): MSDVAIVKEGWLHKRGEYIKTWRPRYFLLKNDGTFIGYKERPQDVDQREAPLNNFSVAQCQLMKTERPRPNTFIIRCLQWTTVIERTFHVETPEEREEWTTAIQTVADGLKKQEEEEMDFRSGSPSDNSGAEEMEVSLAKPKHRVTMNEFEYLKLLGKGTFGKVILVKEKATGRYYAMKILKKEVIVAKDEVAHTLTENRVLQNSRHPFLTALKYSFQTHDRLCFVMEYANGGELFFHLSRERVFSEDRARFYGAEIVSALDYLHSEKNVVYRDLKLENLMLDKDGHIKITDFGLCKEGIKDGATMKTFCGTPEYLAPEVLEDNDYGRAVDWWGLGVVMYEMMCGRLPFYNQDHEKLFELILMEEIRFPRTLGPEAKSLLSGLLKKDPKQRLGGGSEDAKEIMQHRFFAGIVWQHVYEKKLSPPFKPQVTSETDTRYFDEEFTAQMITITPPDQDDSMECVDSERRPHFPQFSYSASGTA
Sequence of Dual specificity mitogen-activated protein kinase kinase 1 (Q02750 whole entry): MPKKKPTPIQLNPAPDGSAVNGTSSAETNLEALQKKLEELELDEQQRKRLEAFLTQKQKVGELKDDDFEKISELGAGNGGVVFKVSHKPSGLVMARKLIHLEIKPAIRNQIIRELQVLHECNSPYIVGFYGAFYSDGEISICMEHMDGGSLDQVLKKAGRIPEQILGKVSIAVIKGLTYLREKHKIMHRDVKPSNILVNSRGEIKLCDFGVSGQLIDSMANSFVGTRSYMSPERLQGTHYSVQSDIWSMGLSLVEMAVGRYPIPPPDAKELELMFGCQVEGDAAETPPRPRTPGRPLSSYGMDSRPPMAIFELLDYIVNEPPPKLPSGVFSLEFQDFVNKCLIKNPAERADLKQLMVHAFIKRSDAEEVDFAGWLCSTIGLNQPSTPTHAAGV
Sequence of Tyrosine-protein kinase CSK (P41240 whole entry): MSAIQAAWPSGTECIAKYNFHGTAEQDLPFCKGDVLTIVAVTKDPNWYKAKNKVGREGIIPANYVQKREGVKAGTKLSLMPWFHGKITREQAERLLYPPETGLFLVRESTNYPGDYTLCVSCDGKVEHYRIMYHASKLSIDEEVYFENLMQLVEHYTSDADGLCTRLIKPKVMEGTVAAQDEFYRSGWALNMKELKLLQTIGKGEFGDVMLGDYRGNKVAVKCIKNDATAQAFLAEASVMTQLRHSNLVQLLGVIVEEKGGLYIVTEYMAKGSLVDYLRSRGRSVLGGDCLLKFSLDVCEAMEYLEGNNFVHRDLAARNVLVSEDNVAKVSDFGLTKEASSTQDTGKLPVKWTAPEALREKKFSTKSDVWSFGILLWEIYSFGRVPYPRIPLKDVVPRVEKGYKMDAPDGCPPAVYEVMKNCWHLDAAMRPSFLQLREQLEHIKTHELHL
Sequence of Mitogen-activated protein kinase 1 (P28482 whole entry): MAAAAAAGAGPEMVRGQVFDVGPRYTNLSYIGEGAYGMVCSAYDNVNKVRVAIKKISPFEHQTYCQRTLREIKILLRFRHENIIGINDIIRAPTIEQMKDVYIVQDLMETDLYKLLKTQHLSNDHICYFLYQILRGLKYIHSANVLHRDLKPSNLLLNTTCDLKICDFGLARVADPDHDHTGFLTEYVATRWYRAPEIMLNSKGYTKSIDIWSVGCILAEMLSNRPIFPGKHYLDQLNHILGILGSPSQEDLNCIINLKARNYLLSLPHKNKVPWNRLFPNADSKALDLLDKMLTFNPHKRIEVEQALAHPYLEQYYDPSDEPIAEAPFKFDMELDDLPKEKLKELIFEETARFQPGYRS

With `CN(C)CCCOc1ccc2c(c1)Nc1c(C(N)=O)c(-c3ccc(Oc4ccccc4)cc3)nn1CC2`, the negative logarithm of the IC50 (pIC50) with Lymphocyte is 7.92.

Consider `NC(=O)c1c(-c2ccc(Oc3ccccc3)cc2)nn2c1Nc1ccc(OCCN3CCOCC3)cc1CC2`, for which the negative logarithm of the IC50 (pIC50) with Lymphocyte was 8.96. For the compound `CN(C)CCOc1ccc2c(c1)CCn1nc(-c3ccc(NCc4c(Cl)cccc4Cl)cc3)c(C(N)=O)c1N2`, the negative logarithm of the IC50 (pIC50) in the experiment with Lymphocyte is 8.89. Same read-out and setting: next, `CN(C)CCOc1ccc2c(c1)CCn1nc(-c3ccc(Nc4ccccc4)cc3)c(C(N)=O)c1N2`: 8.09; `CN(C)CCOc1ccc2c(c1)CCn1nc(-c3ccc(NC(=O)Nc4ccccc4)cc3)c(C(N)=O)c1N2`: 7.30.

Regarding `NC(=O)COc1ccc2c(c1)Nc1c(C(N)=O)c(-c3ccc(Oc4ccccc4)cc3)nn1CC2`, the pIC50 in the experiment with Lymphocyte is 7.80. The same measure, in the same setting: in the case of `CN(C)CCOc1ccc2c(c1)CCn1nc(-c3ccc(N)cc3)c(C(N)=O)c1N2` it was 6.74. Take `CC(C)CCCOc1ccc2c(c1)Nc1c(C(N)=O)c(-c3ccc(Oc4ccccc4)cc3)nn1CC2`: the negative logarithm of the IC50 (pIC50) was 6.21 in the experiment on Lymphocyte and below 7.00 in experiment [1].

As to `CN1CCN(CCOc2ccc3c(c2)CCn2nc(-c4ccc(Oc5ccccc5)cc4)c(C(N)=O)c2N3)CC1`, the negative-log IC50 (pIC50) in the experiment on Lymphocyte is 8.17.

Turning to `NCCOc1ccc2c(c1)CCn1nc(-c3ccc(Oc4ccccc4)cc3)c(C(N)=O)c1N2`, the pIC50 in the experiment with Lymphocyte was 8.89.

`CN(C)CCOc1ccc2c(c1)CCn1nc(-c3ccc(O)cc3)c(C(N)=O)c1N2`: in the experiment with Lymphocyte, the pIC50 is 7.42. Turning to `NC(=O)c1c(-c2ccc(Oc3ccccc3)cc2)nn2c1Nc1cc(OCc3cccnc3)ccc1CC2`, in the experiment with Lymphocyte, the pIC50 was 7.28. Same read-out and setting: in the case of `CN(C)CCOc1ccc2c(c1)Nc1c(C(N)=O)c(-c3ccc(Oc4ccccc4)cc3)nn1CC2` it was 8.19; in that of `NC(=O)c1c(-c2ccc(Oc3ccccc3)cc2)nn2c1Nc1cc(OCCN3CCOCC3)ccc1CC2`, 7.82; in that of `NCCOc1ccc2c(c1)Nc1c(C(N)=O)c(-c3ccc(Oc4ccccc4)cc3)nn1CC2`, 7.60. Consider `NC(=O)c1c(-c2ccc(Oc3ccccc3)cc2)nn2c1Nc1ccc(OCCO)cc1CC2`, for which, in the experiment on Lymphocyte, the pIC50 was 8.92. For the compound `NC(=O)c1c(-c2ccc(Oc3ccccc3)cc2)nn2c1Nc1cc(OCC(=O)O)ccc1CC2`, the pIC50 with Lymphocyte is below 6.00. Take `NC(=O)c1c(-c2ccc(Oc3ccccc3)cc2)nn2c1Nc1ccc(OCc3ccncc3)cc1CC2`: the negative-log IC50 (pIC50) with Lymphocyte was 8.36. Same read-out and setting: in the case of `CN(C)CCOc1ccc2c(c1)CCn1nc(-c3ccc(NC(=O)OCc4ccccc4)cc3)c(C(N)=O)c1N2` it was 7.64.

`COc1ccc2c(c1)Nc1c(C(N)=O)c(-c3ccc(Oc4ccccc4)cc3)nn1CC2`: the pIC50 in the experiment on Lymphocyte was 6.52.

On to `CN(C)CCCOc1ccc2c(c1)CCn1nc(-c3ccc(Oc4ccccc4)cc3)c(C(N)=O)c1N2`, for which, in the experiment on Lymphocyte, the negative-log IC50 (pIC50) is 9.07. Same read-out and setting: in the case of `CN(C)CCOc1ccc2c(c1)CCn1nc(-c3ccc(NC(=O)Nc4c(Cl)cccc4Cl)cc3)c(C(N)=O)c1N2` it was 7.68. On to `CN(C)CCOc1ccc2c(c1)CCn1nc(-c3ccc(Oc4ccccc4)cc3)c(C(N)=O)c1N2`, for which the pIC50 in experiment [2] was below 5.00; in experiment [3] it was 8.77; in experiment [4], 9.22; in experiment [5], below 6.00; in experiment [6], below 5.00; in [7], below 5.00. In addition, the pIC50 was below 5.00 in experiment [8]; below 5.00 in [9]; 9.13 in the experiment with Lymphocyte; 9.14 in experiment [1]; below 5.00 in experiment [10]; below 5.00 in experiment [11]. Consider `CC(=O)COc1ccc2c(c1)Nc1c(C(N)=O)c(-c3ccc(Oc4ccccc4)cc3)nn1CC2`, for which the pIC50 with Lymphocyte is 7.21.

On to `NC(=O)COc1ccc2c(c1)CCn1nc(-c3ccc(Oc4ccccc4)cc3)c(C(N)=O)c1N2`, for which, in the experiment with Lymphocyte, the negative logarithm of the IC50 (pIC50) was 7.06. On the same count and under the same terms, in the case of `CN1CCN(CCOc2ccc3c(c2)Nc2c(C(N)=O)c(-c4ccc(Oc5ccccc5)cc4)nn2CC3)CC1` it was 7.92; in that of `NC(=O)c1c(-c2ccc(Oc3ccccc3)cc2)nn2c1Nc1ccc(OCc3cccnc3)cc1CC2`, 8.82.

`NC(=O)c1c(-c2ccc(Oc3ccccc3)cc2)nn2c1Nc1cc(OCCO)ccc1CC2`: the negative logarithm of the IC50 (pIC50) in the experiment with Lymphocyte is 7.24. For `NC(=O)c1c(-c2ccc(Oc3ccccc3)cc2)nn2c1Nc1ccc(OCc3ccccn3)cc1CC2`, the negative-log IC50 (pIC50) in the experiment with Lymphocyte was 8.08.
